Target: T1, vitamin D receptors (Mus musculus, UniProt P48281)
T1 construct: the skin treated is removed and the epidermis is separated from the dermis; from tissue; host or cells: epidermis of SKH mice (in vivo, topical application)
T1 sequence (P48281 1-422): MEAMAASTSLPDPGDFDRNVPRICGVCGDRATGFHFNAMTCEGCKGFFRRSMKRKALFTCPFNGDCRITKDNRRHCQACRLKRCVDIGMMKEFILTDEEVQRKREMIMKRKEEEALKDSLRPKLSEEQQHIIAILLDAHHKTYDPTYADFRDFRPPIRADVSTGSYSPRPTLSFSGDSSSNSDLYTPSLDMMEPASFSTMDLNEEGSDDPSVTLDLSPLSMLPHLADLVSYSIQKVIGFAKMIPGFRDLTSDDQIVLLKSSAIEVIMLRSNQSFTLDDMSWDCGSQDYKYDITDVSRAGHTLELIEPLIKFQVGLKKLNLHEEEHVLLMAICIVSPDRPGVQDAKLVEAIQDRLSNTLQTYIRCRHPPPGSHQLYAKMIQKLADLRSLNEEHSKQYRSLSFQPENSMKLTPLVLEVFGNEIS
Assay: Induction of 24-Hydroxylase mRNA in the epidermis of SKH mice after a single topical application (semiquantitative PCR)
Assay type: in vivo
Conditions: for Expression of the mRNA for 24-Hydroxylase: Induction factor versus ethanol: single topical application of 50 μl to the back, epidermis 8 hours after application, normalized to GAPDH mRNA
Protocol: The test protocol used is the following:
SKH mice receive a single topical application of a compound according to the invention in solution in ethanol in increasing concentrations. A volume of 50 μl of the product to be tested or of the vehicle alone is applied to the back of the mice with the aid of a pipette.
A volume of 50 μl of the product to be tested or of the vehicle alone is applied to the back of the mice with the aid of a pipette.
8 hours after the topical application, the mice are humanely killed, the skin treated is removed and the epidermis is separated from the dermis. The quantification of the mRNA for 24-Hydroxylase is carried out by semiquantitative PCR.

[1] = concentration 1 % (weight/volume) in ethanol
[2] = concentration 0.1 % (weight/volume) in ethanol

Row | SMILES | Expression of the mRNA for 24-Hydroxylase: Induction factor versus ethanol [1] | Expression of the mRNA for 24-Hydroxylase: Induction factor versus ethanol [2] | Activity (induction of 24-Hydroxylase mRNA) compared with 1,25-(OH)2-vitamin D3 (at the concentration of 1%, single topical application, SKH mice)
1 | CCC(O)(/C=C/C=C(\C)c1cccc(C=Cc2ccc(CO)c(CO)c2)c1)CC [Example 61, (4E-6E)-7-{3-[2-(3,4-bis-Hydroxymethylphenyl}vinyl]-phenyl)-3-ethylocta-4,6-dien-3-ol] | 10 | – | –
2 | CCC(O)(/C=C/C=C(\C)c1cccc(CCc2ccc(CO)c(CO)c2)c1)CC [Example 59, (4E,6E)-7-{3-[2-(3,4-bis-Hydroxymethylphenyl)ethyl]-phenyl}-3-ethylocta-4,6-dien-3-ol] | – | 20.5 | –
3 | CCC(O)(/C=C/C=C(\C)c1cccc(OCc2ccc(CO)c(CO)c2)c1)CC [Example 65, (4E,6E)-7-[3-(3,4-bis-Hydroxymethylbenzyloxy)phenyl]-3-ethylocta-4,6-dien-3-ol] | 15 | – | –
4 | CCC(O)(CC)CC/C=C(\C)c1cccc(OCc2ccc(CO)c(CO)c2)c1 [Example 72, (E)-7-[3-(3,4-bis-Hydroxymethylbenzyloxy)phenyl]-3-ethyloct-6-en-3-ol] | – | 17 | –
5 | CC/C(=C\C=C\C(O)(CC)CC)c1cccc(OCc2ccc(CO)c(CO)c2)c1 [Example 68, (4E,6E)-7-[3-(3,4-bis-Hydroxymethylbenzyloxy)phenyl]-3-ethylnona-4,6-dien-3-ol] | – | 25 | –
6 | CC(=CC=CC(C)(C)O)c1cccc(OCc2ccc(CO)c(CO)c2)c1 [Example 4, 6-[3-(3,4-bis-Hydroxymethylbenzyloxy)phenyl]-2-methylhepta-3,5-dien-2-ol] | 11 | – | comparable to that of 1,25-(OH)2-vitamin D3 at 0.001%
7 | CCC(O)(/C=C/C=C(\C)c1cccc(COc2ccc(CO)c(CO)c2)c1)CC [Example 82, (4E,6E)-7-[3-(3,4-bis-Hydroxymethylphenoxy-methyl)phenyl]-3-ethylocta-4,6-dien-3-ol] | – | 21 | –
